# Several values for one entry are separate records, joined by “and”; a condition that tells them apart may be missing. Equal entries are not always repeated.
# Tests used:
# Experiment in all cases: ≥ marks a high value that may be exact or a test limit, other limits are often not marked, values filed in µg/mL are converted to µM
# Escherichia coli BL21AI = system: Escherichia coli BL21AI
# [1] = system: Micrococcus luteus ATCC 10240
# [2] = system: Staphylococcus aureus ATCC 6538
# [3] = system: Staphylococcus epidermidis ATCC 12228
# [4] = system: Micrococcus luteus ATCC 4698
# [5] = system: Escherichia coli DH5alpha
# [6] = system: Salmonella enterica subsp. enterica serovar Typhimurium ATCC 700408
# Escherichia coli D31 = system: Escherichia coli D31
# [7] = system: Klebsiella pneumoniae K6 ATCC 700603
# [8] = system: Staphylococcus aureus CIP 677
# [9] = system: Lactococcus lactis subsp. cremoris I116
# [10] = system: Staphylococcus epidermidis KCTC 1917
# [11] = system: Pseudomonas aeruginosa KCTC 1637
# [12] = system: Salmonella typhimurium KCTC 1926
# [13] = system: Escherichia coli KCTC 1682
# [14] = system: Candida albicans KCTC 7965
# [15] = system: Bacillus subtilis KCTC 3068
# [16] = system: Staphylococcus aureus KCTC 1621
# [17] = system: Staphylococcus aureus ATCC 25923
# [18] = system: Candida albicans ATCC 200955
# [19] = system: Enterococcus faecium ATCC 700221
# [20] = system: Pseudomonas aeruginosa ATCC 27853
# [21] = system: Staphylococcus aureus ATCC 33591
# [22] = system: Alcaligenes faecalis ATCC 8750
# Escherichia coli SBS 363 = system: Escherichia coli SBS 363
# [23] = system: Salmonella enterica subsp. arizonae ATCC 13314
# [24] = system: Escherichia coli CCT 1371
# [25] = system: Staphylococcus saprophyticus
# [26] = system: Bacillus subtilis ATCC 6633
# [27] = system: Bacillus subtilis CCT 2471
# [28] = system: Staphylococcus aureus CCT 6538
# [29] = system: Klebsiella pneumoniae ATCC 13883
# Micrococcus luteus A270 = system: Micrococcus luteus A270
# Candida albicans MDM8 = system: Candida albicans MDM8
# [30] = system: Escherichia coli ATCC 25922
# Bacillus thuringiensis = system: Bacillus thuringiensis
# Candida albicans = system: Candida albicans
# [31] = system: Listeria monocytogenes EGD
# Candida albicans 820 = system: Candida albicans 820
# Escherichia coli ML-35p = system: Escherichia coli ML-35p
structure (smiles),measurement,setting,value
CC[C@H](C)[C@H](NC(=O)[C@H](Cc1ccc(O)cc1)NC(=O)[C@@H](NC(=O)[C@@H]1CCCN1C(=O)[C@H](CCCN=C(N)N)NC(=O)[C@H](CC(N)=O)NC(=O)[C@H](CC(N)=O)NC(=O)CN)C(C)C)C(=O)N[C@@H](C)C(=O)N[C@@H](CCC(N)=O)C(=O)N1CCC[C@H]1C(=O)N[C@@H](CCCN=C(N)N)C(=O)N1CCC[C@H]1C(=O)N1CCC[C@H]1C(=O)N[C@@H](Cc1cnc[nH]1)C(=O)N1CCC[C@H]1C(=O)N[C@@H](CCCN=C(N)N)C(=O)N[C@@H](CC(C)C)C(N)=O [GNNRPVYIAQPRPPHPRL],MIC,Escherichia coli BL21AI,≥ 60 µM
same,MIC,[1],≥ 60 µM
CC(C)C[C@H](NC(=O)[C@H](CC(C)C)NC(=O)[C@H](CCCCN)NC(=O)[C@H](CO)NC(=O)[C@H](CC(C)C)NC(=O)[C@H](C)NC(=O)[C@H](CCCCN)NC(=O)[C@H](Cc1ccccc1)NC(=O)[C@H](CC(C)C)NC(=O)[C@H](C)NC(=O)[C@H](CCCCN)NC(=O)[C@H](CC(C)C)NC(=O)[C@@H](N)Cc1ccccc1)C(=O)O [FLKALFKALSKLL],MIC,[2],4.02 µM
same,MIC,[3],6.7 µM
same,MIC,[4],2.68 µM
same,MIC,[5],16.8 µM
CC[C@H](C)[C@H](NC(=O)[C@H](Cc1ccc(O)cc1)NC(=O)[C@@H](NC(=O)[C@@H]1CCCN1C(=O)[C@H](CCCN=C(N)N)NC(=O)[C@H](CC(N)=O)NC(=O)[C@H](CC(N)=O)NC(=O)CN)C(C)C)C(=O)N1CCC[C@H]1C(=O)N[C@@H](CCC(N)=O)C(=O)N1CCC[C@H]1C(=O)N[C@@H](CCCN=C(N)N)C(=O)N1CCC[C@H]1C(=O)N1CCC[C@H]1C(=O)N[C@@H](Cc1cnc[nH]1)C(=O)N1CCC[C@H]1C(=O)N[C@@H](CCCN=C(N)N)C(=O)N[C@@H](Cc1ccccc1)C(N)=O [GNNRPVYIPQPRPPHPRF],MIC,[6],1.87 µM
same,MIC,Escherichia coli D31,≥ 59.7 µM
same,MIC,[7],29.9 µM
CC(C)C[C@H](NC(=O)[C@H](CC(C)C)NC(=O)[C@H](CCCCN)NC(=O)[C@H](CO)NC(=O)[C@H](CC(C)C)NC(=O)[C@H](C)NC(=O)[C@H](CCCCN)NC(=O)[C@H](Cc1ccccc1)NC(=O)[C@@H](NC(=O)[C@H](C)NC(=O)CNC(=O)[C@H](CC(C)C)NC(=O)[C@@H](N)Cc1ccccc1)C(C)C)C(=O)O [FLGAVFKALSKLL],MIC,[2],7.82 µM
same,MIC,[3],12.8 µM
same,MIC,[4],4.27 µM
same,MIC,[5],21.3 µM
CC[C@H](C)[C@H](NC(=O)CN)C(=O)N[C@@H](Cc1c[nH]c2ccccc12)C(=O)NCC(=O)N[C@H](C(=O)N[C@@H](CC(C)C)C(=O)N[C@@H](C)C(=O)N[C@@H](CCCCN)C(=O)N[C@H](C(=O)NCC(=O)N[C@H](C(=O)N[C@@H](CCCCN)C(=O)N[C@@H](C)C(=O)N[C@H](C(=O)N1CCC[C@H]1C(=O)N[C@@H](CCCN=C(N)N)C(=O)N[C@H](C(=O)N[C@H](C(=O)N[C@@H](CO)C(=O)N[C@@H](CCSC)C(=O)N[C@@H](CC(C)C)C(=O)N[C@@H](CCCCN)C(=O)N[C@@H](CCCCN)C(=O)N[C@@H](CCCCN)C(=O)N[C@@H](CCC(N)=O)C(=O)O)[C@@H](C)CC)C(C)C)C(C)C)[C@@H](C)CC)[C@@H](C)CC)[C@@H](C)O [GIWGTLAKIGIKAVPRVISMLKKKQ],MIC,[8],8 µM
same,MIC,[9],4 µM
CC(C)C[C@H](NC(=O)[C@H](Cc1ccccc1)NC(=O)CNC(=O)[C@H](Cc1c[nH]c2ccccc12)NC(=O)[C@H](Cc1c[nH]c2ccccc12)NC(=O)[C@H](Cc1c[nH]c2ccccc12)NC(=O)CNC(=O)[C@H](Cc1ccccc1)NC(=O)[C@H](CCCN=C(N)N)NC(=O)[C@H](CCCN=C(N)N)NC(=O)[C@@H](N)C(C)C)C(=O)N[C@@H](CCCN=C(N)N)C(=O)N[C@@H](CCCN=C(N)N)C(=O)O [VRRFGWWWGFLRR],MIC,[10],4.39 µM
same,MIC,[11],≥ 35.1 µM
same,MIC,[12],17.6 µM
same,MIC,[13],17.6 µM
same,MIC,[14],17.6 µM
same,MIC,[15],8.78 µM
same,MIC,[16],8.78 µM
CC[C@H](C)[C@H](NC(=O)[C@H](CCCN=C(N)N)NC(=O)[C@H](CCCCN)NC(=O)[C@H](CC(C)C)NC(=O)[C@H](CC(C)C)NC(=O)CN)C(=O)N[C@@H](CCCCN)C(=O)N[C@@H](CCCCN)C(=O)N[C@@H](CC(C)C)C(=O)N[C@@H](CC(C)C)C(N)=O [GLLKRIKKLL],MIC,[17],4.23 µM
same,MIC,[18],≥ 85.3 µM
same,MIC,[19],≥ 66.3 µM
same,MIC,[20],28.4 µM
same,MIC,[21],≥ 256 µM
CC[C@H](C)[C@H](NC(=O)[C@H](CC(C)C)NC(=O)[C@H](CO)NC(=O)[C@H](CC(C)C)NC(=O)[C@H](CC(C)C)NC(=O)[C@@H](N)CO)C(=O)N[C@@H](CCCN=C(N)N)C(=O)N[C@@H](CCCCN)C(=O)N[C@@H](CC(C)C)C(=O)N[C@H](C(=O)N[C@H](C(N)=O)[C@@H](C)O)[C@@H](C)CC [SLLSLIRKLIT],MIC,[22],≥ 40 µM
same,MIC,Escherichia coli SBS 363,1.6 µM
same,MIC,[23],25 µM
same,MIC,[24],20 µM
same,MIC,[25],20 µM
same,MIC,[26],6.2 µM
same,MIC,[27],8 µM
same,MIC,[28],4 µM
same,MIC,[29],≥ 40 µM
same,MIC,Micrococcus luteus A270,0.8 µM
same,MIC,Candida albicans MDM8,0.8 µM
same,MIC,[30],40 µM
same,MIC,[20],1.6 µM
same,MIC,Bacillus thuringiensis,20 µM
same,MIC,Candida albicans,20 µM
CC[C@H](C)[C@@H]1NC(=O)[C@H](CCCN=C(N)N)NC(=O)[C@@H]2CSSC[C@@H]3NC(=O)[C@H](C(C)C)NC(=O)CNC(=O)[C@H](Cc4ccccc4)NC(=O)[C@H](Cc4ccc(O)cc4)NC(=O)[C@H](C(C)C)NC(=O)[C@H](CCC(=O)O)NC(=O)[C@H](CC(C)C)NC(=O)CNC(=O)[C@H](CC(C)C)NC(=O)[C@H](CSSC[C@H](NC(=O)[C@H](CCCN=C(N)N)NC(=O)[C@H](CCCN=C(N)N)NC(=O)[C@H](C)NC(=O)[C@H](CC(C)C)NC(=O)[C@H](CCCN=C(N)N)NC(=O)CNC(=O)[C@H](Cc4cnc[nH]4)NC(=O)[C@H](CC(C)C)NC(=O)[C@H](Cc4ccccc4)NC3=O)C(=O)N[C@H](C(=O)N[C@@H](CCCN=C(N)N)C(=O)O)CSSC[C@H](NC(=O)[C@@H](NC(=O)[C@H](CCCN=C(N)N)NC(=O)[C@@H](N)CCCN=C(N)N)[C@@H](C)CC)C(=O)N[C@@H](CCCN=C(N)N)C(=O)N2)NC(=O)[C@H](CCCN=C(N)N)NC(=O)CNC1=O [RRICRCRIGRCLGLEVYFGVCFLHGRLARRCCR],MIC,[31],1.3 µM and 1.8 µM
same,MIC,Candida albicans 820,2.3 µM and 4.5 µM
same,MIC,Escherichia coli ML-35p,1.6 µM and 3.5 µM

# Source: DBAASP
